Holding throughout (assay): AlphaScreen proximity-based integrin binding assay with TGF-b1 LAP
Common to all, as to details: values given as ranges

One experiment has as its target human integrin αVβ6 (Homo sapiens, UniProt P06756+P18564). The protocol:
(§1) The biochemical potency of the disclosed compounds was determined using the AlphaScreen® (Perkin Elmer, Waltham, MA) proximity-based assay as described previously (Ullman E F et al., Luminescent oxygen channeling immunoassay: Measurement of particle binding kinetics by chemiluminescence. Proc. Natl. Acad. Sci. USA, Vol. 91, pp. 5426-5430, June 1994, herein incorporated by reference in its entirety). To gauge the potency of inhibitors of binding to each of human integrins αVβ1, αVβ6, and αVβ8, inhibitor compounds were independently incubated with one of αVβ1, αVβ6, or αVβ8, together with TGF-b1 LAP and biotinylated anti-LAP antibody plus acceptor and donor beads, following the manufacture's recommendations. The donor beads were coated with streptavidin. […] All incubations occurred at room temperatures in 50 mM Tris-HCl, pH 7.5, 0.1% BSA supplemented with 1 mM each CaCl2 and MgCl2.
(§2) The order of reagent addition was as follows:
(§3) 1. αVβ1, αVβ6, or αVβ8 integrin, test inhibitor compound, LAP, biotinylated anti-LAP antibody and acceptor beads were all added together.
(§4) 2. After 2 hours, donor beads were added. After another 30 minute incubation, samples were then read.
(§5) Integrin binding was evaluated by exciting donor beads at 680 nm, and measuring the fluorescent signal produced, between 520-620 nm, using a Biotek Instruments (Winooski, VT, USA) SynergyNeo2 multimode plate reader. Compound potency was assessed by determining inhibitor concentrations required to reduce fluorescent light output by 50%. Data analysis for IC50 determinations was carried out by nonlinear four parameter logistic regression analysis using Dotmatics ELN Software (Core Informatics Inc., Branford, Ct). […] Comp #in the Table and Examples below refers to the compound of the corresponding Example number as described in the Synthetic Examples.

For another experiment, the target named is human integrin αVβ1 (Homo sapiens, UniProt P05556+P06756). The protocol: as §1, §2, §3, §4, §5
Chain of human integrin αVβ1 (P06756 31-992 limits assumed): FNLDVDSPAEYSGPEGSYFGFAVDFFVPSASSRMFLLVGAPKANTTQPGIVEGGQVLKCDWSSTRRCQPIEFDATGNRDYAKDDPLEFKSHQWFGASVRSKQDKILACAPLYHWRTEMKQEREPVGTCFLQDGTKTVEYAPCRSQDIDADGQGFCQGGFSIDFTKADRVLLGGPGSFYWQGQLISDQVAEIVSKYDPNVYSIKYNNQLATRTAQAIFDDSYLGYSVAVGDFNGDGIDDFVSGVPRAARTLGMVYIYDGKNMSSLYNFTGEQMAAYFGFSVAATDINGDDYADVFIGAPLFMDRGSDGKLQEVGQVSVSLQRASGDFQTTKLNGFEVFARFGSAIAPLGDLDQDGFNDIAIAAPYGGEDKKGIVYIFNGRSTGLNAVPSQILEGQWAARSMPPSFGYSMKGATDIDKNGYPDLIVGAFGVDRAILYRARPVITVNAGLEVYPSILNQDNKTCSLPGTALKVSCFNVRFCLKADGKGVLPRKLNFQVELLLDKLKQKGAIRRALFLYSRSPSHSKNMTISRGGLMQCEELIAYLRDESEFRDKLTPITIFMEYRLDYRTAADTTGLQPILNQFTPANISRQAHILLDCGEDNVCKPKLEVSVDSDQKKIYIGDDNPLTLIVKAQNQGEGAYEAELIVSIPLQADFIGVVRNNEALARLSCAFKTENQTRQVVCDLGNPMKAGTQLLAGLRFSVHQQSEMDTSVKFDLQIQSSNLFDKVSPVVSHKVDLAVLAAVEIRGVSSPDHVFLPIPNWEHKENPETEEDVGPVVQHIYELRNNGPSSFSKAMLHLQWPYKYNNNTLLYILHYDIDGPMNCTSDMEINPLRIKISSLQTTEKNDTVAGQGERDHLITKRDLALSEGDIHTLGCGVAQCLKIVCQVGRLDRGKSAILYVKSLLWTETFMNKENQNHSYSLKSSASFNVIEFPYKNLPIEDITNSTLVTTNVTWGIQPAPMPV
Chain of human integrin αVβ1 (P05556 21-728 limits assumed): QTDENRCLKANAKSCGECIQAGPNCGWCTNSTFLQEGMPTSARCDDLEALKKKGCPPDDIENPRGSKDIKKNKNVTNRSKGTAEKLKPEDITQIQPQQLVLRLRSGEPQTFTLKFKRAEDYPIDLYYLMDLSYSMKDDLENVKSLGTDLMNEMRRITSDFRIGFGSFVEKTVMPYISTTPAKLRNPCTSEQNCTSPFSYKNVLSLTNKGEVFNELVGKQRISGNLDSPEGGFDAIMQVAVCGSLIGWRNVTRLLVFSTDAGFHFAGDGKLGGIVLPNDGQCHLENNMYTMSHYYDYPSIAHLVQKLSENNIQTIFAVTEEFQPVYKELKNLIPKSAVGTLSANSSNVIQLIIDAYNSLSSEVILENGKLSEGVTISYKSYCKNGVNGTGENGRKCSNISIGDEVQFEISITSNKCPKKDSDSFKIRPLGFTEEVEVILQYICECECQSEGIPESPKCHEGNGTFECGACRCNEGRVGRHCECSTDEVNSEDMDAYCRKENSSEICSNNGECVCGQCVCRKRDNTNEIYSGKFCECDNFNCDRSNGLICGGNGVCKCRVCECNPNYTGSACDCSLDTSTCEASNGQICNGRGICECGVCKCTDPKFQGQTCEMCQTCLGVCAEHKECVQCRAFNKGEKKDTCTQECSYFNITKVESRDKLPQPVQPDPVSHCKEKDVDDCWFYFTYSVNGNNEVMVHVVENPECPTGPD
A further experiment deals with human integrin αVβ8 (Homo sapiens, UniProt P06756+P26012). The method, then:
as §1, §2, §3, §4, §5

Chain of human integrin αVβ8 (P06756 31-992 limits assumed): as the sequence (P06756 31-992 limits assumed) above
Chain of human integrin αVβ8 (P26012 43-684 limits assumed): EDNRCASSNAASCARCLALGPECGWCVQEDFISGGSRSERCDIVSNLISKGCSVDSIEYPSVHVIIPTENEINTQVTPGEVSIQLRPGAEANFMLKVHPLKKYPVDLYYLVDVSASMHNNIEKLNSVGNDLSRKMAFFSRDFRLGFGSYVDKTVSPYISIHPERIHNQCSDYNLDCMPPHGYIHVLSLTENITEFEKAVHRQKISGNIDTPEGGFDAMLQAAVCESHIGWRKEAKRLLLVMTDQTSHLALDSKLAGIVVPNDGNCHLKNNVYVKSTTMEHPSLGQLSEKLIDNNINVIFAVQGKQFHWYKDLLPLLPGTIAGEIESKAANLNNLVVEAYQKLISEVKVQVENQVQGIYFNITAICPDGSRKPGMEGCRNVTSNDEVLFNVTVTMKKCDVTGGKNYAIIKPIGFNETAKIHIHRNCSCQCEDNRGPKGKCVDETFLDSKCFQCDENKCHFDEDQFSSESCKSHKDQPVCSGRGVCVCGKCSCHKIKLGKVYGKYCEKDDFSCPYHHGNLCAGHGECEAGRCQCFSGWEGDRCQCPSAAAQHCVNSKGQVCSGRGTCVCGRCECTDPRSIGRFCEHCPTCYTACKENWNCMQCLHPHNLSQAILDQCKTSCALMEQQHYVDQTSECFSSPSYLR
Chain of human integrin αVβ6 (P06756 31-992 limits assumed): as the sequence (P06756 31-992 limits assumed) above
Chain of human integrin αVβ6 (P18564 22-707 limits assumed): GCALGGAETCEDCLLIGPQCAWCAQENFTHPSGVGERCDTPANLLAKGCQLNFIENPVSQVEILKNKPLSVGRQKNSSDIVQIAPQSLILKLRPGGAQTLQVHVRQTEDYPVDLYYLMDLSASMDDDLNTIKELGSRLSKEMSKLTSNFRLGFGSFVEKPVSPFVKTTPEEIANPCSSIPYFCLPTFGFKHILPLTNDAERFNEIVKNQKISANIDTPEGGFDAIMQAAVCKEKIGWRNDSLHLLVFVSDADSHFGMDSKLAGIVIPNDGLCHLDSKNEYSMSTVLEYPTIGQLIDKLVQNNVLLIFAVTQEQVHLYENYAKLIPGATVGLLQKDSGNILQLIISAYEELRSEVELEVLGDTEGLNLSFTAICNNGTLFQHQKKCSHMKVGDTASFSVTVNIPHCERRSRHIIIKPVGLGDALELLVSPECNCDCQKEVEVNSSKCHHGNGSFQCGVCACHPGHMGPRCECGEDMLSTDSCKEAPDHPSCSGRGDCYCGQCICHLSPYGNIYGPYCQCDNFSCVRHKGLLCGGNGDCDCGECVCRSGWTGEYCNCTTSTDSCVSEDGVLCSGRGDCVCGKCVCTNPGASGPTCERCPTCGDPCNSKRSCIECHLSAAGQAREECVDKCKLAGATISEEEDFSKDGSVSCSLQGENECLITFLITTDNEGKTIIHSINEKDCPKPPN

Turning to `O=C(O)[C@H](CCOCCCCc1ccc2c(n1)NCCC2)NC(=O)C1(n2nc(Cl)cc2Cl)CC1` [Compound 69, N-(1-(3,5-dichloro-1H-pyrazol-1-yl)cyclopropane-1-carbonyl)-O-(4-(5,6,7,8-tetrahydro-1,8-naphthyridin-2-yl)butyl)-L-homoserine], the half-inhibitory concentration (IC50) at human integrin αVβ6 was 250 to 500 nM; at human integrin αVβ1, less than 50 nM; on human integrin αVβ8, less than 50 nM.

As to `Cn1nccc1C1(C(=O)N[C@@H](CCOCCCCc2ccc3c(n2)NCCC3)C(=O)O)CC1` [Compound 54, N-(1-(1-methyl-1H-pyrazol-5-yl)cyclopropane-1-carbonyl)-O-(4-(5,6,7,8-tetrahydro-1,8-naphthyridin-2-yl)butyl)-L-homoserine], the IC50 is not below 500 nM on human integrin αVβ6, less than 50 nM at human integrin αVβ1 and 50 to 150 nM on human integrin αVβ8.

Take `O=C(O)[C@H](CCOCCCCc1ccc2c(n1)NCCC2)NC(=O)C1(c2cccnc2C(F)F)CC1` [Compound 57, N-(1-(2-(difluoromethyl)pyridin-3-yl)cyclopropane-1-carbonyl)-O-(4-(5,6,7,8-tetrahydro-1,8-naphthyridin-2-yl)butyl)-L-homoserine]: the IC50 at human integrin αVβ6 was not below 500 nM; at human integrin αVβ1, less than 50 nM; on human integrin αVβ8 it was 50 to 150 nM.

Turning to `O=C(O)[C@H](CCOCCCCc1ccc2c(n1)NCCC2)NC(=O)C1(c2c(Cl)cccc2Cl)CC1` [Compound 7, N-(1-(2,6-dichlorophenyl)cyclopropane-1-carbonyl)-O-(4-(5,6,7,8-tetrahydro-1,8-naphthyridin-2-yl)butyl)-L-homoserine], the values for the IC50 at human integrin αVβ6, on human integrin αVβ1 and at human integrin αVβ8 were not below 500 nM, less than 50 nM and less than 50 nM, respectively.

Regarding `CC(C)(C(=O)N[C@@H](CCOCCCCc1ccc2c(n1)NCCC2)C(=O)O)c1ccccc1Cl` [Compound 8, N-(2-(2-chlorophenyl)-2-methylpropanoyl)-O-(4-(5,6,7,8-tetrahydro-1,8-naphthyridin-2-yl)butyl)-L-homoserine], the IC50 at human integrin αVβ6 is not below 500 nM; at human integrin αVβ1, less than 50 nM; at human integrin αVβ8, 50 to 150 nM.

With `Cc1nccnc1C1(C(=O)N[C@@H](CCOCCCCc2ccc3c(n2)NCCC3)C(=O)O)CC1` [Compound 42, N-(1-(3-methylpyrazin-2-yl)cyclopropane-1-carbonyl)-O-(4-(5,6,7,8-tetrahydro-1,8-naphthyridin-2-yl)butyl)-L-homoserine], the IC50 on human integrin αVβ6 was not below 500 nM; on human integrin αVβ1 it was less than 50 nM; at human integrin αVβ8, less than 50 nM.

As to `O=C(O)[C@H](CCOCCCCc1ccc2c(n1)NCCC2)NC(=O)C1(n2c(=O)ccc3ccccc32)CC1` [Compound 90, N-(1-(2-oxoquinolin-1(2H)-yl)cyclopropane-1-carbonyl)-O-(4-(5,6,7,8-tetrahydro-1,8-naphthyridin-2-yl)butyl)-L-homoserine], the concentration for half-maximal inhibition (IC50) on human integrin αVβ6 was more than 500 nM; on human integrin αVβ1 it was 50 to 150 nM; on human integrin αVβ8, less than 50 nM.

`O=C(O)[C@H](CCOCCCCc1ccc2c(n1)NCCC2)NC(=O)C1(c2ncccc2Cl)CC1` [Compound 15, N-(1-(3-chloropyridin-2-yl)cyclopropane-1-carbonyl)-O-(4-(5,6,7,8-tetrahydro-1,8-naphthyridin-2-yl)butyl)-L-homoserine]: the IC50 on human integrin αVβ6 was not below 500 nM; on human integrin αVβ1, less than 50 nM; on human integrin αVβ8 it was less than 50 nM.

Regarding `O=C(O)[C@H](CCOCCCCc1ccc2c(n1)NCCC2)NC(=O)C1(c2cncnc2C(F)F)CC1` [Compound 59, N-(1-(4-(difluoromethyl)pyrimidin-5-yl)cyclopropane-1-carbonyl)-O-(4-(5,6,7,8-tetrahydro-1,8-naphthyridin-2-yl)butyl)-L-homoserine], the half-maximal inhibitory concentration (IC50) is not below 500 nM on human integrin αVβ6, less than 50 nM at human integrin αVβ1 and less than 50 nM at human integrin αVβ8.

`Cc1nc(C)c(C2(C(=O)N[C@@H](CCOCCCCc3ccc4c(n3)NCCC4)C(=O)O)CC2)c(Cl)n1` [Compound 60, N-(1-(4-chloro-2,6-dimethylpyrimidin-5-yl)cyclopropane-1-carbonyl)-O-(4-(5,6,7,8-tetrahydro-1,8-naphthyridin-2-yl)butyl)-L-homoserine]: the values for the IC50 at human integrin αVβ6, on human integrin αVβ1 and on human integrin αVβ8 were not below 500 nM, less than 50 nM and less than 50 nM, respectively.

Regarding `CC(C)(C(=O)N[C@@H](CCOCCCCc1ccc2c(n1)NCCC2)C(=O)O)c1cc(F)cnc1Cl` [Compound 23, N-(2-(2-chloro-5-fluoropyridin-3-yl)-2-methylpropanoyl)-O-(4-(5,6,7,8-tetrahydro-1,8-naphthyridin-2-yl)butyl)-L-homoserine], the half-inhibitory concentration (IC50) on human integrin αVβ6 is 250 to 500 nM; at human integrin αVβ1 it was less than 50 nM; on human integrin αVβ8, 50 to 150 nM.

On to `O=C(O)[C@H](CCOCCCCc1ccc2c(n1)NCCC2)NC(=O)C1(c2ncccc2C(F)(F)F)CC1` [Compound 25, O-(4-(5,6,7,8-tetrahydro-1,8-naphthyridin-2-yl)butyl)-N-(1-(3-(trifluoromethyl)pyridin-2-yl)cyclopropane-1-carbonyl)-L-homoserine], for which the concentration for half-maximal inhibition (IC50) on human integrin αVβ6 was not below 500 nM; at human integrin αVβ1, less than 50 nM; at human integrin αVβ8, less than 50 nM.

For `COCc1cccnc1C1(C(=O)N[C@@H](CCOCCCCc2ccc3c(n2)NCCC3)C(=O)O)CC1` [Compound 53, N-(1-(3-(methoxymethyl)pyridin-2-yl)cyclopropane-1-carbonyl)-O-(4-(5,6,7,8-tetrahydro-1,8-naphthyridin-2-yl)butyl)-L-homoserine], the IC50 at human integrin αVβ6 was not below 500 nM; on human integrin αVβ1, 50 to 150 nM; at human integrin αVβ8, 50 to 150 nM.

`O=C(O)[C@H](CCOCCCCc1ccc2c(n1)NCCC2)NC(=O)C1(c2ncsc2Cl)CC1` [Compound 82, N-(1-(5-chlorothiazol-4-yl)cyclopropane-1-carbonyl)-O-(4-(5,6,7,8-tetrahydro-1,8-naphthyridin-2-yl)butyl)-L-homoserine]: the values for the half-maximal inhibitory concentration (IC50) on human integrin αVβ6, on human integrin αVβ1 and at human integrin αVβ8 were not below 500 nM, less than 50 nM and less than 50 nM, respectively.

For `O=C(O)[C@H](CCOCCCCc1ccc2c(n1)NCCC2)NC(=O)C1(c2c(Cl)cc[nH]c2=O)CC1` [Compound 68, N-(1-(4-chloro-2-oxo-1,2-dihydropyridin-3-yl)cyclopropane-1-carbonyl)-O-(4-(5,6,7,8-tetrahydro-1,8-naphthyridin-2-yl)butyl)-L-homoserine], the values for the IC50 at human integrin αVβ6, at human integrin αVβ1 and on human integrin αVβ8 were not below 500 nM, less than 50 nM and less than 50 nM, respectively.

Regarding `O=C(O)[C@H](CCOCCCCc1ccc2c(n1)NCCC2)NC(=O)C1(c2[nH]cnc2Cl)CC1` [Compound 79, N-(1-(4-chloro-1H-imidazol-5-yl)cyclopropane-1-carbonyl)-O-(4-(5,6,7,8-tetrahydro-1,8-naphthyridin-2-yl)butyl)-L-homoserine], the IC50 on human integrin αVβ6 is not below 500 nM; at human integrin αVβ1, less than 50 nM; at human integrin αVβ8, less than 50 nM.

Take `N#Cc1cc(F)ccc1C1(C(=O)N[C@@H](CCOCCCCc2ccc3c(n2)NCCC3)C(=O)O)CC1` [Compound 43, N-(1-(2-cyano-4-fluorophenyl)cyclopropane-1-carbonyl)-O-(4-(5,6,7,8-tetrahydro-1,8-naphthyridin-2-yl)butyl)-L-homoserine]: the half-inhibitory concentration (IC50) on human integrin αVβ6 is not below 500 nM; on human integrin αVβ1, less than 50 nM; at human integrin αVβ8 it was less than 50 nM.

Usually IC50 stands for the concentration that gives 50% inhibition.
